# “And” between values parts separate entries of the source, which are not always exact repeats. Identical values can stand only once.
# Legend:
# Sprague-Dawley rats [1] = test: Individual sample study: miR-133 in blood plasma of toxicant-treated rats by qPCR; type: in vivo, rat; details: individual male rats
# Method: (§1) To follow up on the initial results shown in Example 2, blood samples from 44 individual rats that had been treated with varying doses of CBrCl3, CCl4 (another liver toxicant), or TMPD were evaluated using qPCR of miR-122 and miR-133. In addition, data from histopathology and a panel of standard biomarkers (ALT, AST, CK, skTnI, etc.) were also available for these same individual rats and were used to compare the results from microRNA assays with the standard histopathology and protein biomarkers.
# (§2) Animals Male and female Sprague-Dawley rats were obtained from Charles River Laboratories, Inc. (Raleigh, N.C.). The rats were approximately seven to eight weeks of age and weighed from 125 to 325 grams at the start of the study. The animals were acclimated for approximately one week and randomized into treatment and control groups. During the toxicity studies targeting liver, the animals were maintained on a caloric-restricted diet, and fasted overnight prior to necropsy. Doses were different for each model compound tested and were calculated based on animal body weight. For the compounds, routes of administration, dose groups, and time points, see the below compound section.
# (§3) Skeletal Muscle Toxicant • 2,3,5,6-tetramethyl-p phenylenediamine (TMPD) • Doses: 2, 4 mg/kg bid • Dosing: 0.9% NaCl by subcutaneous injection • Animals: Sprague Dawley Male Rats • Time Points: TMPD Plasma (Day 2) and Controls (5 samples per group, […] pooled=500 μl total).
# (§4) Liver Toxicant • Trichlorobromomethane (CCl3Br) • Doses: 0.03, 0.1 ml/kg • Dosing: 100% liquid paraffin by oral gavage • Animals: Sprague Dawley Male Rats • Time Point: CCl3Br Plasma (Days 2 & 4) and Controls (4 controls, 3 samples per group, 100 μl each) • Carbon Tetrachloride (CCl4) • Doses: 0.03, 0.1, 0.3 ml/kg • Dosing: 100% liquid paraffin by oral gavage • Animals: Sprague Dawley Male Rats • Time Point: CCl4 Plasma (Days 2) and Controls (4 samples per group, 100 μl each)
# (§5) Plasma Samples All plasma samples were collected in EDTA tubes at final necropsy from the vena cava. Samples were inverted several times, and centrifuged for 20 minutes at 2,900 RPM at 4° C. Plasma samples were removed and stored at −70° C. Pooled blood plasma samples from rat toxicology studies were analyzed using a qPCR-based assay (Raymond et al, 2005, RNA 11:1737; WO 2006/081282). Control slope and intercept values for miR-122 and miR-133 were calculated from a concentration series of each microRNA added to total yeast RNA and then analyzed using the qPCR assay for each miRNA. The slope and intercept values from the standard curve were used to calculate the amount of each respective miRNA in each sample expressed as the number of miRNA copies per 20 ng of total RNA in each sample. Cycle threshold values (Ct) for each sample were converted to miRNA copy numbers by comparison to standard curves generated using single stranded mature miRNAs and are expressed in Table 4 as copies/20 pg input RNA (approximately equivalent to copies/cell).
# Sprague-Dawley rats [2] = test: Pooled sample study: miR-133 in blood plasma of toxicant-treated rats by qPCR; type: in vivo; details: pooled rat plasma (5 samples), cerivastatin 1.0 mg/kg/day oral Day 14, CBrCl3 0.1 ml/kg oral Days 2 & 4, TMPD 6 mg/kg bid s.c. Day 3; for miR-133 Copies / miR-133 Ct Mean: 250 ng total RNA input
# Method: (§6) To explore the feasibility of detecting miRNA tissue injury biomarkers in plasma, a pilot study was performed in which pooled blood plasma samples from rat toxicology studies were analyzed using a qPCR-based assay (Raymond et at, 2005, RNA 11:1737; WO 2006/081282). The miRNAs miR-122 and miR-133 were chosen for quantification because they are extremely abundant and specific to liver and muscle, respectively (FIG. 1). Stored plasma samples from rats that had previously been treated with a liver damaging agent trichlorobromomethane (CBrCl3) or with one of two muscle damaging agents 2,3,5,6-tetramethyl-p phenylenediamine (TMPD) or cerivastatin) were assayed form miRNA levels using qPCR.
# as §2
# (§7) Skeletal Muscle Toxicant • 2,3,5,6-tetramethyl-p phenylenediamine (TMPD) • Doses: 6 mg/kg bid • Dosing: 0.9% NaCl by subcutaneous injection • Animals: Sprague Dawley Male Rats • Time Points Day 3, TMPD Plasma (Day 3) and Controls (5 samples, 100 ul each pooled=500 ul total).
# (§8) Liver Toxicant • Trichlorbromomethane (CCl3Br) • Doses: 0.1 ml/kg • Dosing: 100% liquid paraffin by oral gavage • Animals: Sprague Dawley Male Rats • Time Point: Day 2, 4 CCl3Br Plasma (Days 2 & 4) and Controls (5 samples, 100 ul each pooled=500 ul total)
# (§9) Liver and Muscle Toxicant • Cerivastatin • Doses: 1.0 mg/kg/day • Dosing: 0.5% methylcellulose by oral gavage • Animals: Sprague Dawley Female Rats • Time Point Day 14 Cerivastatin Plasma (Day 14) and Controls (5 samples, 100 ul each pooled=500 μl total)
# as §5, with “expressed” for “expressed in Table 4”
# Sprague-Dawley rats [3] = test: Pooled sample study: miR-122 in blood plasma of toxicant-treated rats by qPCR; type: in vivo; details: pooled rat plasma (5 samples), cerivastatin 1.0 mg/kg/day oral Day 14, CBrCl3 0.1 ml/kg oral Days 2 & 4, TMPD 6 mg/kg bid s.c. Day 3; for miR-122 Copies / miR-122 Ct Mean: 250 ng total RNA input
# Method: as §6, §2, §7, §8, §9
# as §5, with “expressed” for “expressed in Table 4”
# Sprague-Dawley rats [4] = test: Individual sample study: miR-122 in blood plasma of toxicant-treated rats by qPCR; type: in vivo, rat; details: individual male rats
# Method: as §1, §2, §3, §4, §5
# Sprague-Dawley rats [5] = test: Clinical chemistry (AST, ALT, CK) in blood plasma of toxicant-treated rats; type: in vivo, rat; details: individual male rats
# Method: as §1, §2, §3, §4
# Sprague-Dawley rats [6] = test: Liver histopathology scores of toxicant-treated rats; type: in vivo, rat; set-up: key to Liver Histopathology Scores: Vacuolation / Liver Histopathology Scores: Necrosis / Liver Histopathology Scores: Degeneration / Liver Histopathology Scores: Inflammation / Liver Histopathology Scores: Mitotic Index: 1 = very slight; 2 = slight or small; 3 = moderate; 4 = marked; 5 = severe tissue injury
# Method: as §1, §2, §4
# [7] = CBrCl3 0.03 mL/kg oral gavage, Day 2, plasma
# [8] = CBrCl3 0.03 mL/kg oral gavage, Day 4, plasma
# [9] = CBrCl3 0.1 mL/kg oral gavage, Day 4, plasma
# [10] = CBrCl3 0.03 mL/kg oral gavage, Day 2, individual male rats
# [11] = CBrCl3 0.03 mL/kg oral gavage, Day 4, individual male rats
# [12] = CBrCl3 0.1 mL/kg oral gavage, Day 4, individual male rats
# [13] = CCl4 0.03 ml/kg oral gavage, Day 2, plasma
# [14] = CCl4 0.1 mL/kg oral gavage, Day 2, plasma
# [15] = CCl4 0.3 mL/kg oral gavage, Day 2, plasma
# [16] = CCl4 0.03 ml/kg oral gavage, Day 2, individual male rats
# [17] = CCl4 0.1 mL/kg oral gavage, Day 2, individual male rats
# [18] = CCl4 0.3 mL/kg oral gavage, Day 2, individual male rats
smiles,measurement,setting,value
"ClC(Cl)(Cl)Br [CBrCl3, trichlorobromomethane]",miR-133,Sprague-Dawley rats [1]; [7],0.7 copies/20 pg input RNA and 0.2 copies/20 pg input RNA and 0.4 copies/20 pg input RNA
same,miR-133,Sprague-Dawley rats [1]; [8],1.2 copies/20 pg input RNA and 2.0 copies/20 pg input RNA and 0.3 copies/20 pg input RNA
same,miR-133,Sprague-Dawley rats [1]; [9],0.8 copies/20 pg input RNA and 0.4 copies/20 pg input RNA (2×)
same,miR-133 Copies,Sprague-Dawley rats [2],85617.9
same,miR-133 Ct Mean,Sprague-Dawley rats [2],29.6296
same,miR-133 Copies/20 pg,Sprague-Dawley rats [2],6.8 Copies/20 pg
same,miR-122 Copies,Sprague-Dawley rats [3],8.8E+08
same,miR-122 Ct Mean,Sprague-Dawley rats [3],12.6961
same,miR-122 Copies/20 pg,Sprague-Dawley rats [3],70674.9 Copies/20 pg
same,miR-122,Sprague-Dawley rats [4]; [7],860.8 copies/20 pg input RNA and 45.1 copies/20 pg input RNA and 47.3 copies/20 pg input RNA
same,miR-122,Sprague-Dawley rats [4]; [8],90.2 copies/20 pg input RNA and 56.2 copies/20 pg input RNA and 20.5 copies/20 pg input RNA
same,miR-122,Sprague-Dawley rats [4]; [9],4049.2 copies/20 pg input RNA and 335.5 copies/20 pg input RNA and 304.0 copies/20 pg input RNA
same,ALT,Sprague-Dawley rats [5]; [7],142 Unit and 36 Unit (2×)
same,AST,Sprague-Dawley rats [5]; [7],366 Unit and 83 Unit and 93 Unit
same,ALT,Sprague-Dawley rats [5]; [8],34 Unit and 43 Unit and 32 Unit
same,AST,Sprague-Dawley rats [5]; [8],138 Unit and 118 Unit and 108 Unit
same,ALT,Sprague-Dawley rats [5]; [9],1388 Unit and 191 Unit and 223 Unit
same,AST,Sprague-Dawley rats [5]; [9],1543 Unit and 370 Unit and 519 Unit
same,Liver Histopathology Scores: Degeneration,Sprague-Dawley rats [6]; [10],2 and 0 and 1
same,Liver Histopathology Scores: Inflammation,Sprague-Dawley rats [6]; [10],1 (2×) and 0
same,Liver Histopathology Scores: Mitotic Index,Sprague-Dawley rats [6]; [10],0
same,Liver Histopathology Scores: Necrosis,Sprague-Dawley rats [6]; [10],1 and 0 (2×)
same,Liver Histopathology Scores: Degeneration,Sprague-Dawley rats [6]; [11],0 and 1 (2×)
same,Liver Histopathology Scores: Inflammation,Sprague-Dawley rats [6]; [11],0
same,Liver Histopathology Scores: Mitotic Index,Sprague-Dawley rats [6]; [11],0
same,Liver Histopathology Scores: Necrosis,Sprague-Dawley rats [6]; [11],0
same,Liver Histopathology Scores: Degeneration,Sprague-Dawley rats [6]; [12],2 and 1 (2×)
same,Liver Histopathology Scores: Inflammation,Sprague-Dawley rats [6]; [12],2
same,Liver Histopathology Scores: Mitotic Index,Sprague-Dawley rats [6]; [12],1 (2×) and 2
same,Liver Histopathology Scores: Necrosis,Sprague-Dawley rats [6]; [12],3 and 1 (2×)
"ClC(Cl)(Cl)Cl [CCl4, Carbon Tetrachloride]",miR-133,Sprague-Dawley rats [1]; [13],0.3 copies/20 pg input RNA (2×) and 0.5 copies/20 pg input RNA and 1.0 copies/20 pg input RNA
same,miR-133,Sprague-Dawley rats [1]; [14],0.3 copies/20 pg input RNA (2×) and 0.4 copies/20 pg input RNA (2×)
same,miR-133,Sprague-Dawley rats [1]; [15],1.4 copies/20 pg input RNA and 0.4 copies/20 pg input RNA and 0.3 copies/20 pg input RNA and 0.1 copies/20 pg input RNA
same,miR-122,Sprague-Dawley rats [4]; [13],2.4 copies/20 pg input RNA and 5.5 copies/20 pg input RNA and 8.7 copies/20 pg input RNA and 10.0 copies/20 pg input RNA
same,miR-122,Sprague-Dawley rats [4]; [14],7.9 copies/20 pg input RNA and 107.4 copies/20 pg input RNA and 14.3 copies/20 pg input RNA and 119.4 copies/20 pg input RNA
same,miR-122,Sprague-Dawley rats [4]; [15],1563.6 copies/20 pg input RNA and 194.3 copies/20 pg input RNA and 191.4 copies/20 pg input RNA and 164.6 copies/20 pg input RNA
same,ALT,Sprague-Dawley rats [5]; [13],25 Unit (3×) and 20 Unit
same,AST,Sprague-Dawley rats [5]; [13],92 Unit and 88 Unit and 76 Unit and 84 Unit
same,ALT,Sprague-Dawley rats [5]; [14],25 Unit and 40 Unit (2×) and 41 Unit
same,AST,Sprague-Dawley rats [5]; [14],96 Unit and 116 Unit and 102 Unit and 126 Unit
same,ALT,Sprague-Dawley rats [5]; [15],87 Unit and 77 Unit and 62 Unit and 56 Unit
same,AST,Sprague-Dawley rats [5]; [15],345 Unit and 216 Unit and 157 Unit and 225 Unit
same,Liver Histopathology Scores: Degeneration,Sprague-Dawley rats [6]; [16],0
same,Liver Histopathology Scores: Inflammation,Sprague-Dawley rats [6]; [16],0
same,Liver Histopathology Scores: Necrosis,Sprague-Dawley rats [6]; [16],0
same,Liver Histopathology Scores: Vacuolation,Sprague-Dawley rats [6]; [16],0
same,Liver Histopathology Scores: Degeneration,Sprague-Dawley rats [6]; [17],0 (2×) and 1 (2×)
same,Liver Histopathology Scores: Inflammation,Sprague-Dawley rats [6]; [17],0 (2×) and 2 and 1
same,Liver Histopathology Scores: Necrosis,Sprague-Dawley rats [6]; [17],0 (2×) and 1 (2×)
same,Liver Histopathology Scores: Vacuolation,Sprague-Dawley rats [6]; [17],0 and 1 (3×)
same,Liver Histopathology Scores: Degeneration,Sprague-Dawley rats [6]; [18],2
same,Liver Histopathology Scores: Inflammation,Sprague-Dawley rats [6]; [18],2 (3×) and 1
same,Liver Histopathology Scores: Necrosis,Sprague-Dawley rats [6]; [18],1
same,Liver Histopathology Scores: Vacuolation,Sprague-Dawley rats [6]; [18],0
COCc1c(C(C)C)nc(C(C)C)c(/C=C/[C@@H](O)C[C@@H](O)CC(=O)O)c1-c1ccc(F)cc1 [Cerivastatin],miR-133 Copies,Sprague-Dawley rats [2],7279643
same,miR-133 Ct Mean,Sprague-Dawley rats [2],23.1065
same,miR-133 Copies/20 pg,Sprague-Dawley rats [2],582.4 Copies/20 pg
same,miR-122 Copies,Sprague-Dawley rats [3],353217
same,miR-122 Ct Mean,Sprague-Dawley rats [3],24.2231
same,miR-122 Copies/20 pg,Sprague-Dawley rats [3],28.3 Copies/20 pg

# — patent publication US20110111976A1, “MICRORNA BIOMARKERS OF TISSUE INJURY” (priority 2008, published 2011)
